Results taken from PubChem BioAssay AID256 (DTP/NCI, 2004).
Several values for one entry are separate records, joined by “and”; a condition that tells them apart may be missing. Identical values can stand only once. Inconclusive results and toxic doses are left out. How the source made its calls: active means survival T/C of 150% or more; inactive means T/C below 125% in these data.

Test system: CD2F1 mice, L1210 leukemia ip, survival T/C
Test: NCI In Vivo Anticancer Drug Screen. Data for tumor model L1210 Leukemia (intraperitoneal) in CD2F1 (CDF1) mice
Conditions: higher = longer survival
Method in brief: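 Each value reflects a quotient of treated over vehicle control outcomes in mice with a transplanted tumor.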

[1] = endpoint: mean survival time, dose: 6.25 mg/kg/injection, schedule: Q01DX009 (ip), vehicle: saline with Tween-80
[2] = endpoint: mean survival time, dose: 12.5 mg/kg/injection, schedule: Q01DX009 (ip), vehicle: saline with Tween-80
[3] = endpoint: mean survival time, dose: 100.0 mg/kg/injection, schedule: Q04DX003 (ip), vehicle: saline with Tween-80
[4] = endpoint: mean survival time, dose: 25.0 mg/kg/injection, schedule: Q04DX003 (ip), vehicle: saline
[5] = endpoint: mean survival time, dose: 50.0 mg/kg/injection, schedule: Q04DX003 (ip), vehicle: saline
[6] = endpoint: mean survival time, dose: 100.0 mg/kg/injection, schedule: Q01DX009 (ip), vehicle: saline with Tween-80
[7] = endpoint: mean survival time, dose: 25.0 mg/kg/injection, schedule: Q01DX009 (ip), vehicle: water
[8] = endpoint: mean survival time, dose: 50.0 mg/kg/injection, schedule: Q01DX009 (ip), vehicle: water
[9] = endpoint: mean survival time, dose: 100.0 mg/kg/injection, schedule: Q01DX009 (ip), vehicle: water
[10] = endpoint: mean survival time, dose: 200.0 mg/kg/injection, schedule: Q01DX009 (ip), vehicle: water
[11] = endpoint: mean survival time, dose: 100.0 mg/kg/injection, schedule: Q01DX001 (ip), vehicle: saline with Tween-80
[12] = endpoint: mean survival time, dose: 200.0 mg/kg/injection, schedule: Q01DX001 (ip), vehicle: saline with Tween-80
[13] = endpoint: mean survival time, dose: 100.0 mg/kg/injection, schedule: Q01DX001 (ip), vehicle: saline
[14] = endpoint: mean survival time, dose: 200.0 mg/kg/injection, schedule: Q01DX001 (ip), vehicle: saline
[15] = endpoint: mean survival time, dose: 400.0 mg/kg/injection, schedule: Q01DX001 (ip), vehicle: saline
[16] = endpoint: mean survival time, dose: 200.0 mg/kg/injection, schedule: Q01DX009 (ip), vehicle: saline with Tween-80

Measured: T/C

O=C1C=CC(=O)N1c1ccc2c(c1)OCO2
inactive: [1] 91 % of control | [2] 86 % of control

CC(=O)O[C@@H]1CO[C@H]2O[C@H]3[C@@H](C(C=O)=C[C@H](O)[C@@H]4C5=C(C(C)C)CC[C@]5(C)CC[C@@]34C)[C@@]2(O)C1=O
inactive: endpoint: mean survival time, dose: 0.75 mg/kg/injection, schedule: Q01DX009 (ip), vehicle: Klucel (hydroxypropylcellulose) (HPC) 104 % of control | endpoint: mean survival time, dose: 1.5 mg/kg/injection, schedule: Q01DX009 (ip), vehicle: Klucel (hydroxypropylcellulose) (HPC) 104 % of control | endpoint: mean survival time, dose: 3.0 mg/kg/injection, schedule: Q01DX009 (ip), vehicle: Klucel (hydroxypropylcellulose) (HPC) 104 % of control | endpoint: mean survival time, dose: 6.0 mg/kg/injection, schedule: Q01DX009 (ip), vehicle: Klucel (hydroxypropylcellulose) (HPC) 107 % of control

c1ccc2[s+]cccc2c1
inactive: [3] 95 % of control

CCN(CC)C(C)COC(=O)c1ccc(N)cc1 (centres undefined)
inactive: endpoint: mean survival time, dose: 12.5 mg/kg/injection, schedule: Q04DX003 (ip), vehicle: saline 103 % of control | [4] 103 % of control | [5] 111 % of control

CCCCNCCN(CC)CC
inactive: endpoint: mean survival time, dose: 25.0 mg/kg/injection, schedule: Q01DX009 (ip), vehicle: saline with Tween-80 94 % of control | [4] 94 % of control | endpoint: mean survival time, dose: 50.0 mg/kg/injection, schedule: Q01DX009 (ip), vehicle: saline with Tween-80 96 % of control | [5] 89 % of control | [6] 93 % of control | endpoint: mean survival time, dose: 100.0 mg/kg/injection, schedule: Q04DX003 (ip), vehicle: saline 97 % of control

CC(=O)OCC1CCN2CCCC12 (centres undefined)
inactive: endpoint: mean survival time, dose: 12.5 mg/kg/injection, schedule: Q01DX009 (ip), vehicle: water 101 % of control | [7] 96 % of control | [8] 98 % of control | [9] 101 % of control | [10] 101 % of control

COc1ccc(NC(=O)c2ccc(S(=O)(=O)F)cc2)cc1
inactive: [11] 97 % of control | [12] 95 % of control | endpoint: mean survival time, dose: 400.0 mg/kg/injection, schedule: Q01DX001 (ip), vehicle: saline with Tween-80 94 % of control

S=C=Nc1cccc(Cl)c1
inactive: endpoint: mean survival time, dose: 75.0 mg/kg/injection, schedule: Q01DX009 (ip), vehicle: saline with Tween-80 95 % of control and 100 % of control | endpoint: mean survival time, dose: 150.0 mg/kg/injection, schedule: Q01DX009 (ip), vehicle: saline with Tween-80 100 % of control | endpoint: mean survival time, dose: 300.0 mg/kg/injection, schedule: Q01DX009 (ip), vehicle: saline with Tween-80 86 % of control

CC(=O)Oc1cc(-c2ccccc2)c(OC(C)=O)c(N=[N+]=[N-])c1C
inactive: [11] 101 % of control | [12] 108 % of control

CN(/N=N/c1nc[nH]c1C(N)=O)C1CCCCC1
inactive: endpoint: mean survival time, dose: 7.8 mg/kg/injection, schedule: Q01DX009 (ip), vehicle: Klucel (hydroxypropylcellulose) (HPC) 105 % of control | endpoint: mean survival time, dose: 31.2 mg/kg/injection, schedule: Q01DX009 (ip), vehicle: Klucel (hydroxypropylcellulose) (HPC) 124 % of control | endpoint: mean survival time, dose: 125.0 mg/kg/injection, schedule: Q01DX009 (ip), vehicle: Klucel (hydroxypropylcellulose) (HPC) 122 % of control | endpoint: mean survival time, dose: 250.0 mg/kg/injection, schedule: Q01DX009 (ip), vehicle: Klucel (hydroxypropylcellulose) (HPC) 70 % of control

O=S1(=O)CCCN1c1ccccc1
inactive: [13] 100 % of control | [14] 106 % of control | [15] 103 % of control

COC(=O)Nc1cn2cc(C(=O)c3cccs3)ccc2n1
inactive: endpoint: median survival time, dose: 6.25 mg/kg/injection, schedule: Q01DX009 (ip), vehicle: Klucel (hydroxypropylcellulose) (HPC) 104 % of control | endpoint: median survival time, dose: 12.5 mg/kg/injection, schedule: Q01DX009 (ip), vehicle: Klucel (hydroxypropylcellulose) (HPC) 112 % of control | endpoint: median survival time, dose: 25.0 mg/kg/injection, schedule: Q01DX009 (ip), vehicle: Klucel (hydroxypropylcellulose) (HPC) 119 % of control | endpoint: median survival time, dose: 50.0 mg/kg/injection, schedule: Q01DX009 (ip), vehicle: Klucel (hydroxypropylcellulose) (HPC) 124 % of control

N\C([S-])=N/N=C\C(=N/N=C(\N)[S-])C(O)C(O)C(O)CO.[Rh+2] (centres undefined)
inactive: [13] 98 % of control | [14] 96 % of control | [15] 96 % of control

CCc1ccc(OC(C)=O)cc1
inactive: endpoint: mean survival time, dose: 50.0 mg/kg/injection, schedule: Q01DX009 (ip), vehicle: Klucel (hydroxypropylcellulose) (HPC) 98 % of control | endpoint: mean survival time, dose: 100.0 mg/kg/injection, schedule: Q01DX009 (ip), vehicle: Klucel (hydroxypropylcellulose) (HPC) 98 % of control | endpoint: mean survival time, dose: 200.0 mg/kg/injection, schedule: Q01DX009 (ip), vehicle: Klucel (hydroxypropylcellulose) (HPC) 90 % of control

C=C1C[C@@H](O)C[C@@]2(C)C[C@@H]3OC(=O)C(=C)[C@@H]3C[C@H]12
inactive: [6] 104 % of control | [16] 111 % of control

COc1ccc(COC(=O)Nc2cccc3ccccc23)cc1
inactive: endpoint: mean survival time, dose: 75.0 mg/kg/injection, schedule: Q04DX002 (ip), vehicle: saline with Tween-80 104 % of control | endpoint: mean survival time, dose: 150.0 mg/kg/injection, schedule: Q04DX002 (ip), vehicle: saline with Tween-80 104 % of control | endpoint: mean survival time, dose: 300.0 mg/kg/injection, schedule: Q04DX002 (ip), vehicle: saline with Tween-80 100 % of control

Nc1cc(=S)c2nnn(C3OC(CO)C(O)C3O)c2[nH]1 (centres undefined)
inactive: [7] 100 % of control | [8] 104 % of control | [9] 93 % of control | [10] 86 % of control | endpoint: mean survival time, dose: 400.0 mg/kg/injection, schedule: Q01DX009 (ip), vehicle: water 89 % of control

CC12CCC3C4CCC(=O)C(O)=C4CCC3C1CCC2OC(=O)CCC1CCCC1 (centres undefined)
inactive: endpoint: mean survival time, dose: 100.0 mg/kg/injection, schedule: Q04DX003 (sc), vehicle: steriod suspending solution 101 % of control | endpoint: mean survival time, dose: 200.0 mg/kg/injection, schedule: Q04DX003 (sc), vehicle: steriod suspending solution 104 % of control | endpoint: mean survival time, dose: 400.0 mg/kg/injection, schedule: Q04DX003 (sc), vehicle: steriod suspending solution 104 % of control

O=C1CNC(=O)N1c1cccc(Cl)c1
inactive: [6] 96 % of control | [16] 92 % of control

CCC[CH2][Sn]([CH2]C)([CH2]C)[O]C(C)=O
inactive: endpoint: mean survival time, dose: 2.5 mg/kg/injection, schedule: Q01DX009 (ip), vehicle: saline with Tween-80 104 % of control | endpoint: mean survival time, dose: 5.0 mg/kg/injection, schedule: Q01DX009 (ip), vehicle: saline with Tween-80 102 % of control

O=[N+]([O-])c1ccc2c(c1)CS(=O)(=O)C2
inactive: [6] 101 % of control | [3] 96 % of control | [16] 101 % of control | endpoint: mean survival time, dose: 200.0 mg/kg/injection, schedule: Q04DX003 (ip), vehicle: saline with Tween-80 90 % of control | endpoint: mean survival time, dose: 400.0 mg/kg/injection, schedule: Q01DX009 (ip), vehicle: saline with Tween-80 101 % of control | endpoint: mean survival time, dose: 400.0 mg/kg/injection, schedule: Q04DX003 (ip), vehicle: saline with Tween-80 96 % of control

c1ccc(CN=NNc2ccccc2)cc1
inactive: endpoint: mean survival time, dose: 75.0 mg/kg/injection, schedule: Q01DX001 (ip), vehicle: saline 94 % of control | endpoint: mean survival time, dose: 150.0 mg/kg/injection, schedule: Q01DX001 (ip), vehicle: saline 100 % of control | endpoint: mean survival time, dose: 300.0 mg/kg/injection, schedule: Q01DX001 (ip), vehicle: saline 103 % of control

O=C1C2CCCCC2C(=O)N1c1cccc2cccnc12 (centres undefined)
inactive: endpoint: mean survival time, dose: 50.0 mg/kg/injection, schedule: Q01DX001 (ip), vehicle: saline with Tween-80 98 % of control | [11] 95 % of control | [12] 95 % of control

CO/N=C/C1OC(n2ccc(=O)[nH]c2=O)C2OC(C)(C)OC12 (centres undefined)
inactive: endpoint: median survival time, dose: 12.5 mg/kg/injection, schedule: Q01DX005 (ip), vehicle: Klucel (hydroxypropylcellulose) (HPC) 100 % of control | endpoint: median survival time, dose: 25.0 mg/kg/injection, schedule: Q01DX005 (ip), vehicle: Klucel (hydroxypropylcellulose) (HPC) 110 % of control | endpoint: median survival time, dose: 50.0 mg/kg/injection, schedule: Q01DX005 (ip), vehicle: Klucel (hydroxypropylcellulose) (HPC) 107 % of control | endpoint: median survival time, dose: 100.0 mg/kg/injection, schedule: Q01DX005 (ip), vehicle: Klucel (hydroxypropylcellulose) (HPC) 101 % of control

O=C(CBr)Nc1cc([N+](=O)[O-])ccc1O
inactive: [1] 91 % of control | [2] 98 % of control

O=C1CC(c2ccccc2)=NN1c1ccccc1
inactive: endpoint: mean survival time, dose: 100.0 mg/kg/injection, schedule: Q04DX003 (ip), vehicle: Klucel (hydroxypropylcellulose) (HPC) 98 % of control | endpoint: mean survival time, dose: 200.0 mg/kg/injection, schedule: Q04DX003 (ip), vehicle: Klucel (hydroxypropylcellulose) (HPC) 95 % of control | endpoint: mean survival time, dose: 400.0 mg/kg/injection, schedule: Q04DX003 (ip), vehicle: Klucel (hydroxypropylcellulose) (HPC) 101 % of control
